Results reported in patent US20260060969A1, “METHODS FOR THE TREATMENT OF LYMPHOPROLIFERATIVE DISORDERS” (INSTITUT NATIONAL DE LA SANTÉ ET DE LA RECHERCHE MÉDICALE, priority 2022, published 2026).

Assays:
NZBWF1/J mice = experiment: Alpelisib in NZBWF1/J mice, model of lymphoproliferative disorders (spleen size, splenocyte flow cytometry); assay type: in vivo, mouse; details: female NZBWF1/J mice aged 24 weeks, 4 weeks treatment, vs vehicle
Protocol: Inventors have first investigated the impact of PIK3CA inhibition in NZBWF1/J mice a model of lymphoproliferative disorders. They randomly assigned 30 females aged of 24 weeks to receive either vehicle (n=15) or alpelisib (n=15) during 4 weeks. At the end of the treatment period, mice were sacrificed and flow cytometry was performed in splenocytes.
(§1) FIG. 1: Alpelisib improves lymphoproliferative mouse models. A. Spleen to body weight ratio at the time of sacrifice (4 weeks following treatment either with vehicle or alpelisib) (n=5-15 mice per group). B-F. Percentage of spleen cell population determined by flow cytometry analysis in NZBWF1/J mice treated with either vehicle or alpelisib. Spleen to body weight ratio of MRL-lpr mice treated either with vehicle or alpelisib for 4 weeks (n=14 mice per group). Percentage of peripheral blood monuclear cell (PBMC), bone marrow, spleen and lymph nodes cell population determined by flow cytometry analysis in MRL-lpr mice treated with either vehicle or alpelisib for 4 weeks (n=8-9 mice per group). CD4, CD8, B220, Mac1, Gr1 are used as lineage markers.
We first investigated the impact of PIK3CA inhibition in NZBWF1/J mice a model of lymphoproliferative disorders. We randomly assigned 30 females aged of 24 weeks to receive either vehicle (n=15) or alpelisib (n=15) during 4 weeks. At the end of the treatment period, mice were sacrificed and flow cytometry was performed in splenocytes.

[1] = system: MRL/MpJ-Faslpr/J mice (MRL-lpr); experiment: Alpelisib in MRL/MpJ-Faslpr/J (MRL-lpr) mice, model of lymphoproliferative disorder (spleen and lymph node size, flow cytometry); assay type: in vivo, mouse; details: 4 weeks
Description: They then decided to explore the relevance of alpelisib in MRL/MpJ-Faslpr/J mice (referred here as MRL-lpr), another mouse model of lymphoproliferative disorder. These mice with homozygous Fas mutation usually develop severe lymphadenoproliferation. Female mice die at an average of 18-20 weeks old. They first randomly assigned to either vehicle or alpelisib MRL-lpr female mice at 8 weeks old, before they fully develop diseases.
as §1
FIG. 2: Alpelisib modifies mononuclear cell population in MRL-lpr mice. Flow cytometry analysis of bone marrow, spleen, lymph nodes, and PBMC in MRL-lpr mice treated either with vehicle or alpelisib for 4 weeks (n=8-9 mice per group). CD4, CD8, B220, Mac1, Gr1 are used as lineage markers.
We then decided to explore the relevance of alpelisib in MRL/MpJ-Faslpr/J mice (referred here as MRL-lpr), another mouse model of lymphoproliferative disorder. These mice with homozygous Fas mutation usually develop severe lymphadenoproliferation. Female mice die at an average of 18-20 weeks old. We first randomly assigned to either vehicle or alpelisib MRL-lpr female mice at 8 weeks old, before they fully develop diseases.

PROS patients = PROS patients in poor condition; earlier work told in the background; cited from earlier work
[2] = MRL-lpr mice, PBMC, lymph nodes and spleen
[3] = female MRL-lpr mice treated from 8 weeks old, at sacrifice, vs vehicle

For `Cc1nc(NC(=O)N2CCC[C@H]2C(N)=O)sc1-c1ccnc(C(C)(C)C(F)(F)F)c1` [alpelisib], the “spleen size (spleen to body weight ratio, FIG. 1A)” value (NZBWF1/J mice; at sacrifice) was “significantly reduced”, the “B cells (flow cytometry in splenocytes)” value (NZBWF1/J mice; spleen) was “significantly reduced” and the “CD8 cells count (flow cytometry in splenocytes)” value (NZBWF1/J mice; spleen) was “corrected”. For the same compound, the “B cells (flow cytometry)” value [1, 2] was “correction”, the “T cells (flow cytometry)” value [1, 2] was “correction” and the “other immune cells (flow cytometry)” value [1, 2] was “correction”. The lymph node size [1, 3] was “reduction”, the spleen size [1, 3] was “reduction” and the “clinical, biological and radiological outcome” value (PROS patients) was “clinical, biological and radiological improvements”.
